Data on 27 compounds can be found in US10981879B2, “Thioether triazolopyridine and triazolopyrimidine inhibitors of myeloperoxidase” (BRISTOL-MYERS SQUIBB COMPANY, priority 2014, dated 2021).

SMILES strings stand for the structures. pIC50: −log10 of the molar value.

As a reminder, the pIC50 is the IC50 on a negative log10 scale, so that one unit is a factor of ten.

Assay [1] concerns the target T1, myeloperoxidase (MPO) (Homo sapiens (Human), UniProt P05164). The assay can be described thus: MPO peroxidation assay (Amplex Red). Type of assay: biochemical. The settings on record: Table 1. Here is the method: MPO peroxidation activity was measured in 100 mM KPi (pH 7.4) by utilizing the non-fluorescent reagent Amplex Red (Invitrogen catalog #A12222) which can be oxidized to the highly fluorescent resorufin. Amplex Red is oxidized by the peroxidase action of MPO to resorufin. Reactions were carried out in 50 μL total volume by adding a 25 μL mixture of 200 pM myeloperoxidase and 40 nM H2O2 (Sigma #349887) to 100 nL inhibitor in 100% DMSO in a 384 well Perkin Elmer Optiplate. Enzyme and compound were preincubated for ten minutes at rt.
After the ten minute preincubation, 25 μL of an Amplex Red mixture containing 200 μM Amplex Red and 10 mM H2O2 was added to the plate. Kinetic determinations were carried out immediately on a Perkin Elmer Envision (15 minute kinetic read, Ex: 535 nm, Em: 590 nm).
IC50 values were calculated by determining the slope of the linear portion of the kinetic trace (180-540 secs), and using that calculated slope to determine % inhibition occurring at each concentration of inhibitor using the following equation:
[formula] where A=minimal Y value (activity level of inhibited sample), B=maximal Y value (activity level of uninhibited sample), C=Log IC50, D=Hill Slope, x=concentration of inhibitor. MPO Chlorination Assay

The target in assay [2] is T1, myeloperoxidase (MPO). The assay can be described thus: MPO chlorination assay (APF). Type of assay: biochemical. The method, boiled down: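 Human MPO (200 pM) with 120 mM NaCl preincubated with inhibitor 10 minutes at rt in 100 mM KPi pH 7.4. Reaction started with APF mixture containing 10 μM H2O2; fluorescein fluorescence (ex 485/em 535 nm) read kinetically 3 minutes. IC50 from slopes of linear kinetic portion, fitted with a four-parameter Hill equation.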

The mark [3] stands for this setting: MPO chlorination assay (APF), Table 1, read-out: APF IC50.
[4] abbreviates: MPO chlorination assay, ranges given, read-out: MPO chlorination assay IC50.

T1 sequence (P05164 49-745): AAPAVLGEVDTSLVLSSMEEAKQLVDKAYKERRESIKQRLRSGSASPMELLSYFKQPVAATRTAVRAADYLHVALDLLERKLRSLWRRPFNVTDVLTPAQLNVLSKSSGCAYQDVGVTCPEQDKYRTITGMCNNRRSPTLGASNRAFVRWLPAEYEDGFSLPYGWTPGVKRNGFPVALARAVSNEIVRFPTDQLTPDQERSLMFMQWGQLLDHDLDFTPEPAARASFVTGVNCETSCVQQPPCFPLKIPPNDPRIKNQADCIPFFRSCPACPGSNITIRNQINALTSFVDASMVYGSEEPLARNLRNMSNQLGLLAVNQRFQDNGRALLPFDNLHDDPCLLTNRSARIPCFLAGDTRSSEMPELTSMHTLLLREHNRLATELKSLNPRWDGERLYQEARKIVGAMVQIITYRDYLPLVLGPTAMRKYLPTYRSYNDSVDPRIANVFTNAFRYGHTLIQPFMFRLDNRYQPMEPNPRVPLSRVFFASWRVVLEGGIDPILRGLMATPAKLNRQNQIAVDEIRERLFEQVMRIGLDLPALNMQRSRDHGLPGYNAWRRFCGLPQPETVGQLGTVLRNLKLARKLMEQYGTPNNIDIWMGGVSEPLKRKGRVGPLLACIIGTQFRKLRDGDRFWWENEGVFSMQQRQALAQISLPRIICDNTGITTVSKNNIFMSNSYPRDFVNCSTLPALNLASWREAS

In the case of `Nc1cc(SCc2cn(-c3ccc(N4CCCC4)nc3)nc2C(F)(F)F)c2nn[nH]c2n1` [Example 139], the pIC50 at myeloperoxidase (MPO) [1] is 6.77; on myeloperoxidase (MPO) [2] (setting [3]) it was 8.00.

On to `Nc1cc(SCc2ccccc2CN2CCC(Oc3ccccc3)C2)c2nn[nH]c2n1` (stereo not drawn) [Example 98, 7-((2-((3-phenoxypyrrolidin-1-yl)methyl)benzyl)thio)-3H-[1,2,3]triazolo[4,5-b] pyridin-5-amine], for which the pIC50 against myeloperoxidase (MPO) [1] is 6.28; at myeloperoxidase (MPO) [2] (setting [3]), 6.19.

For the compound `Nc1cc(SCc2cn(-c3cccnn3)nc2C(F)F)c2nn[nH]c2n1` [Example 144], the pIC50 is 7.40 against myeloperoxidase (MPO) [1] and 7.10 at myeloperoxidase (MPO) [2] (setting [3]).

Regarding `Nc1cc(SCc2cc(C(F)(F)F)ccc2C(F)(F)F)c2nn[nH]c2n1` [Example 39, 7-((2,5-bis(trifluoromethyl)benzyl)thio)-3H-[1,2,3] triazolo[4,5-b]pyridin-5-amine], the pIC50 at myeloperoxidase (MPO) [1] is 8.00; on myeloperoxidase (MPO) [2] (setting [3]), 7.70.

Take `CCC(Sc1cc(N)nc2[nH]nnc12)c1ccccc1` (stereo not drawn) [Example 45, 7-((1-phenylpropyl)thio)-3H-[1,2,3]triazolo[4,5-b] pyridin-5-amine]: the negative-log IC50 (pIC50) against myeloperoxidase (MPO) [1] was 7.70; on myeloperoxidase (MPO) [2] (setting [3]) it was 7.10.

In the case of `Nc1cc(SC(CO)c2ccccc2)c2nn[nH]c2n1` (stereo not drawn) [Example 126, 2-((5-Amino-3H-[1,2,3]triazolo[4,5-b]pyridin-7-yl)thio)-2-phenylethanol], the pIC50 against myeloperoxidase (MPO) [1] was 7.70; on myeloperoxidase (MPO) [2] (setting [3]), 7.10.

Consider `Cc1ncn(C)c1CSc1cc(N)nc2[nH]nnc12` [Example 77, 7-(((1,4-dimethyl-1H-imidazol-5-yl)methyl)thio)-3H-[1,2,3]triazolo[4,5-b] pyridin-5-amine], for which the pIC50 against myeloperoxidase (MPO) [1] is 6.85; at myeloperoxidase (MPO) [2] (setting [3]), 6.21.

For the compound `Nc1cc(SCc2cc(F)c(-c3ncon3)cc2F)c2nn[nH]c2n1` [Example 28, 7-((2,5-difluoro-4-(1,2,4-oxadiazol-3-yl)benzyl)thio)-3H-[1,2,3]triazolo[4,5-b] pyridin-5-amine], the pIC50 at myeloperoxidase (MPO) [1] is 8.00; on myeloperoxidase (MPO) [2] (setting [3]), 7.10.

On to `Nc1nc(SCc2ccccc2CN2CCCC2)c2nn[nH]c2n1` [Example 166, 7-((2-(pyrrolidin-1-ylmethyl)benzyl)thio)-3H-[1,2,3]triazolo[4,5-d] pyrimidin-5-amine], for which the pIC50 on myeloperoxidase (MPO) [1] is 6.10; on myeloperoxidase (MPO) [2] (setting [3]), 6.24.

Regarding `Nc1cc(SCc2cn(-c3ccccc3)nc2C(F)(F)F)c2nn[nH]c2n1` [Example 113, 7-(((1-phenyl-3-(trifluoromethyl)-1H-pyrazol-4-yl)methyl)thio)-3H-[1,2,3]triazolo[4,5-b] pyridin-5-amine], the pIC50 on myeloperoxidase (MPO) [1] was 7.70; at myeloperoxidase (MPO) [2] (setting [3]), 8.00.

Turning to `Nc1cc(SCc2ccccc2F)c2nn[nH]c2n1` [Example 3, 7-((2-fluorobenzyl)thio)-3H-[1,2,3]triazolo [4,5-b]pyridin-5-amine], the pIC50 is 8.15 at myeloperoxidase (MPO) [1] and 8.00 at myeloperoxidase (MPO) [2] (setting [3]).

On to `CS(=O)(=O)c1ccc(CSc2cc(N)nc3[nH]nnc23)c(Cl)c1` [Example 104, 7-((2-chloro-4-(methylsulfonyl)benzyl)thio)-3H-[1,2,3]triazolo[4,5-b]pyridin-5-amine], for which the pIC50 at myeloperoxidase (MPO) [1] was 8.00; at myeloperoxidase (MPO) [2] (setting [3]), 7.05.

For the compound `Nc1cc(SCc2cn(-c3cnccn3)nc2C(F)F)c2nn[nH]c2n1` [Example 145], the pIC50 against myeloperoxidase (MPO) [1] was 7.52; on myeloperoxidase (MPO) [2] (setting [3]), 7.10.

`Nc1cc(SCc2ncccn2)c2nn[nH]c2n1` [Example 57, 7-((pyrimidin-2-ylmethyl)thio)-3H-[1,2,3]triazolo[4,5-b]pyridin-5-amine]: the pIC50 at myeloperoxidase (MPO) [1] is 7.00; on myeloperoxidase (MPO) [2] (setting [3]) it was 6.30.

With `Nc1cc(SCc2cc(F)ccc2OC(F)(F)F)c2nn[nH]c2n1` [Example 66, 7-((5-fluoro-2-(trifluoromethoxy)benzyl)thio)-3H-[1,2,3]triazolo[4,5-b]pyridin-5-amine], the pIC50 is 8.00 at myeloperoxidase (MPO) [1] and 7.70 on myeloperoxidase (MPO) [2] (setting [3]).

As for `Nc1cc(SCc2cn(C3CCCCC3)nc2C(F)(F)F)c2nn[nH]c2n1` [Example 115, 7-(((1-cyclohexyl-3-(trifluoromethyl)-1H-pyrazol-4-yl)methyl)thio)-3H-[1,2,3]triazolo[4,5-b] pyridin-5-amine], the pIC50 at myeloperoxidase (MPO) [2] (setting [4]) is 6.70 to 7.22.

On to `N#Cc1cccc(-n2ccnc2)c1CSc1cc(N)nc2[nH]nnc12` [Example 131, 2-(((5-amino-3H-[1,2,3]triazolo[4,5-b]pyridin-7-yl)thio)methyl)-3-(1H-imidazol-1-yl)benzonitrile], for which the pIC50 at myeloperoxidase (MPO) [2] (setting [4]) was 6.00 to 6.70.

The compound `Nc1cc(SCc2cn(-c3cnccn3)nc2C(F)F)c2nn[nH]c2n1` [Example 152, 7-(((3-(difluoromethyl)-1-(pyrazin-2-yl)-1H-pyrazol-4-yl)methyl)thio)-3H-[1,2,3]triazolo [4,5-b]pyridin-5-amine] had a pIC50 at myeloperoxidase (MPO) [2] of 6.00 to 6.70.

For `CN(C)Cc1ccccc1-n1cc(CSc2cc(N)nc3[nH]nnc23)c(C(F)F)n1` [Example 150, 7-(((3-(difluoromethyl)-1-(2-((dimethylamino)methyl)phenyl)-1H-pyrazol-4-yl)methyl)thio)-3H-[1,2,3]triazolo [4,5-b]pyridin-5-amine], on myeloperoxidase (MPO) [2] (setting [4]), the pIC50 was at least 7.22.

In the case of `Cc1cc(CSc2cc(N)nc3[nH]nnc23)c(Cl)nc1Cl` [Example 24, 7-(((2,6-dichloro-5-methylpyridin-3-yl)methyl)thio)-3H-[1,2,3]triazolo[4,5-b]pyridin-5-amine], on myeloperoxidase (MPO) [2] (setting [4]), the pIC50 is 6.70 to 7.22.

Regarding `N#Cc1ccc(CSc2cc(N)nc3[nH]nnc23)c(C2CC2)c1` [Example 133, 4-(((5-amino-3H-[1,2,3]triazolo[4,5-b]pyridin-7-yl)thio)methyl)-3-cyclopropylbenzonitrile], the pIC50 at myeloperoxidase (MPO) [2] (setting [4]) is at least 7.22.

Take `N#Cc1ccc(F)c(CSc2cc(N)nc3[nH]nnc23)c1` [Example 123, 3-(((5-amino-3H-[1,2,3]triazolo[4,5-b]pyridin-7-yl)thio)methyl)-4-fluorobenzonitrile]: at myeloperoxidase (MPO) [2] (setting [4]), the negative logarithm of the IC50 (pIC50) is 6.70 to 7.22.

Turning to `Nc1cc(SCc2cnn(-c3ccccc3)c2C(F)(F)F)c2nn[nH]c2n1` [Example 114, 7-(((1-phenyl-5-(trifluoromethyl)-1H-pyrazol-4-yl)methyl)thio)-3H-[1,2,3]triazolo[4,5-b] pyridin-5-amine], the pIC50 on myeloperoxidase (MPO) [2] (setting [4]) was 6.70 to 7.22.

In the case of `Nc1cc(SC(C(=O)NCc2ccccc2)c2ccccc2)c2nn[nH]c2n1` (stereo not drawn) [Example 127, 2-((5-Amino-3H-[1,2,3]triazolo[4,5-b]pyridin-7-yl)thio)-N-benzyl-2-phenylacetamide], on myeloperoxidase (MPO) [2] (setting [4]), the negative-log IC50 (pIC50) was 6.00 to 6.70.

As for `N#Cc1ccc(-n2cccn2)cc1CSc1cc(N)nc2[nH]nnc12` [Example 12, 2-(((5-Amino-3H-[1,2,3]triazolo[4,5-b]pyridin-7-yl)thio)methyl)-4-(1H-pyrazol-1-yl)benzonitrile], the pIC50 on myeloperoxidase (MPO) [2] (setting [4]) is at least 7.22.

In the case of `CN(C)c1cccc(-n2cc(CSc3cc(N)nc4[nH]nnc34)c(C(F)(F)F)n2)n1` [Example 140, 7-(((1-(6-(dimethylamino)pyridin-2-yl)-3-(trifluoromethyl)-1H-pyrazol-4-yl)methyl)thio)-3H-[1,2,3]triazolo [4,5-b]pyridin-5-amine], at myeloperoxidase (MPO) [2] (setting [4]), the pIC50 was 6.00 to 6.70.

On to `Nc1cc(SCc2cn(-c3ccccn3)nc2C(F)(F)F)c2nn[nH]c2n1` [Example 135, 7-(((1-(pyridin-2-y1)-3-(trifluoromethyl)-1H-pyrazol-4-yl)methyl)thio)-3H-[1,2,3] triazolo[4,5-b]pyridin-5-amine], for which the pIC50 on myeloperoxidase (MPO) [2] (setting [4]) was at least 7.22.
